Laboratory results as given in paper PMC11678869, “Functional Role of Odorant-Binding Proteins in Response to Sex Pheromone Component Z8-14:Ac in Grapholita molesta (Busck)” (Insects, 2024).

Experiments:
OFM males = experiment: Field trapping with delta traps, pear orchard; type: in vivo, Grapholita molesta; settings: pear orchard; for Inhibition Rate of OFM Males: vs 100:4:0
Method: (§1) To determine the inhibitory effects on OFM male adults and the impact on the trapping effects of PFM male adults, varying amounts of Z8-14:Ac (0, 5, 10, 25, 50, 75, 100, 125, 150 μg) or Z10-14:Ac (0, 25, 50, 100, 150, 250, 350, 450, and 550 μg) were added to rubber septa loaded with a constant dosage of the main pheromone (500 μg of Z8-12:Ac and 20 μg of E8-12:Ac) of the PFM. Trapping experiments of Z8-14:Ac were carried out in peach and pear orchards in Yan’an and Xinjiang (China), respectively. Trapping tests of Z10-14:Ac were performed in pear orchards in Xinjiang (China). Each orchard had nine plots, with three plots in one field. Each plot consisted of a linear arrangement of traps loaded with a constant dosage of the main pheromones and different percentages of the secondary pheromone Z8-14:Ac or Z10-14:Ac of the PFM. Plots in the same field were placed 30 m apart, and fields were ≥1 km apart. The traps were hung 1.4 m from the ground on a suspension bracket between two rows of peach or pear trees from 10 June to 25 July 2021 in Xinjiang and from 15 June to 30 July 2021 in Yan’an. The positions of the traps within the plot were randomly arranged. Every 5 days, counts were taken, and the traps were rotated to the adjacent position to avoid any potential position effects. The septa loaded with sex pheromone components were replaced with new ones after every 15 days of suspension. The data were analyzed using a one-way ANOVA, and the differences in the average trapping of OFM and PFM males using sex attractants containing different amounts of Z8-14:Ac or Z10-14:Ac were further analyzed using Tukey’s HSD test, both of which were performed using SPSS 23.0.

OFM male antennae = experiment: Electroantennogram (EAG) analysis; parameters: species or system Grapholita molesta; settings: for EAG response of OFM males: 20, 200 and 2000 μg doses
Method: (§2) Electroantennogram (EAG) equipment (Syntech, Hilversum, The Netherlands) was used to record the antennal responses of the OFM and PFM adults to Z8-12:Ac, E8-12:Ac, Z8-12:OH, Z8-14:Ac, and Z10-14:Ac. These sex pheromone compounds were diluted with liquid paraffin to prepare a stimulus solution of 100 μg/μL, which was subsequently diluted to 10 and 1 μg/μL. Antenna from 3-day-old OFM and 2- to 4-day-old PFM virgin males were excised at its base, with the distal part of the terminal segment being removed. Then, the treated antenna was attached to electrode holders with SpectraR360 conducting gel. A stimulus controller (model CS-55, Syntegon Technology, Waiblingen, Germany) continuously supplied a humidified air stream at a rate of 500 mL/min. Then, 20 μL of each stimulus solution was adsorbed onto a twice-folded filter paper strip (0.5 cm × 4 cm) placed on the wide section of a l mL pipette tip, which served as an odorant cartridge. Vapor stimuli were delivered by an air compressor into the constant air stream described above, flowing in a copper delivery tube (i.d. 8 mm) with the outlet positioned approximately 1 cm from the antenna. The EAG amplitude tests of the OFM and PFM males’ responses to sex pheromones started with solvent control stimuli (20 μL of liquid paraffin), followed by stimulation with 20, 200, and 2000 μg doses (20 μL of 1.0, 10.0, and 100.0 μg/μL of liquid paraffin solutions, respectively) of stimulus in sequence. The solvent control was performed at the end of the run. To control for variations among antennae, each sample was tested on 10 antennae of different males. The EAG signals and data were analyzed using EAG 2000 software (Syntech, Hilversum, The Netherlands). The corrected EAG amplitude value = absolute EAG amplitude value − (EAGck1 + EAGck2)/2, where EAGck1 and EAGck2 represent the absolute EAG amplitude values of the solvent control before and after measuring each stimulus, respectively. The relative EAG response of the OFM and PFM males to the same doses of sex pheromones were subjected to an analysis of independent sample t-test (p = 0.05) using SPSS version 23.0 (IBM).

PFM males = experiment: Field trapping with delta traps, pear orchard; type: in vivo, Grapholita funebrana
Method: as §1

PFM male antennae = experiment: Electroantennogram (EAG) analysis; parameters: species or system Grapholita funebrana; settings: 20, 200 and 2000 μg doses
Method: as §2

rGmolGOBP1 = rGmolGOBP1 (Grapholita molesta, UniProt H9XTU5); experiment: Fluorescence competitive binding assay with 1-NPN probe
Sequence of rGmolGOBP1 (H9XTU5 entry or part of it): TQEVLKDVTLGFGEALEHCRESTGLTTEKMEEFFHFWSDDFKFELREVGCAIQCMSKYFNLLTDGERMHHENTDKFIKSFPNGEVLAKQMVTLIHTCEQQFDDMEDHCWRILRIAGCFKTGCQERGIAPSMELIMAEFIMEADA
Text: (§3) Previous researchers have successfully expressed rGmolPBP1, rGmolPBP2, rGmolPBP3, rGmolGOBP1, and rGmolGOBP2 proteins using prokaryotic expression systems. In this article, the DNA sequences of these five GmolPBPs and GmolGOBPs, with the signal peptides removed and restriction sites on both ends, were inserted into the expression vector pET28a(+) linearized with the same restriction enzyme. These vectors were then transformed into Escherichia coli BL21(DE3) and induced by isopropyl-β-d-thiogalactoside (IPTG). Since all five recombinant proteins were expressed in inclusion bodies, they were denatured using 8 M urea and then renatured using a cysteine/cystine REDOX system. The reduced recombinant proteins were purified using an Ni-NTA His Bind Resin column (7Sea Pharmatech Co., Ltd., Shanghai, China). Non-target proteins were washed off with washing buffer (20 mM Tris-HCl (pH 7.4), 20 mM imidazole, 1 mM PMSF, and 250 mM NaCl), and then the target proteins were eluted with elution buffer (20 mM Tris-HCl (pH 7.4), 1 mM PMSF, and 250 mM NaCl) with an increasing concentration of imidazole (50, 100, and 200 mM). Five milliliters of eluents with high target protein content and low levels of contaminants were collected and placed in dialysis tubing (Coolaber, Beijing, China) with a molecular weight cut-off of 3.5 kDa to remove NaCl and imidazole. The purified soluble proteins were stored at −80 °C before use.
(§4) The binding affinities of three rGmolPBPs and two rGmolGOBPs for Z8-14:Ac were determined using an F-2700 fluorescence spectrophotometer (Hitachi, Tokyo, Japan). First, we measured the dissociation constants (Kd) of the rGmolPBPs (or rGmolGOBPs) binding to 1−NPN. Each protein was diluted to 2 μM with 20 mM Tris-HCl buffer (pH 7.4); then, 2 mL of the protein solution was transferred to a quartz cuvette and titrated with 1 mM 1−NPN to a final concentration of 1–18 μM. As the doses of 1−NPN were increased, the increasing amplitude of the fluorescence intensity decreased, and finally, the binding of the protein to 1−NPN reached saturation. The Kd values were calculated using the nonlinear regression method and the Scatchard equation. Second, we measured the inhibitory constant (Ki) of Z8-14:Ac’s competitive binding with each rGmolPBP (or rGmolGOBP) from the protein/1−NPN complex. The initial fluorescence intensity values were measured after a 2 min reaction in 2 mL solution of 20 mM Tris-HCl (pH 7.4) containing 2 µM rGmolPBP (or rGmolGOBP) protein and 2 µM 1−NPN. Then, the solution was titrated with aliquots of 1 mM Z8-14:Ac to obtain final concentrations in the range of 1–14 µM, and the fluorescence intensity value of each reaction was recorded. The Ki values were calculated using the following equation: Ki = [IC50]/(1 + [1 − NPN]/Kd) where IC50 is the concentration of Z8-14:Ac when half of the initial fluorescence intensity value of the rGmolPBP (or GmolGOBP)/1−NPN complex is replaced, [1 − NPN] represents the concentration of free 1−NPN, and Kd is the dissociation constant of the rGmolPBP (or GmolGOBP)/1−NPN complex.

rGmolPBP2 (wild-type) = rGmolPBP2 (wild-type) (Grapholita molesta, UniProt A0A059VC28); experiment: as above
Sequence of rGmolPBP2 (wild-type) (A0A059VC28 entry or part of it): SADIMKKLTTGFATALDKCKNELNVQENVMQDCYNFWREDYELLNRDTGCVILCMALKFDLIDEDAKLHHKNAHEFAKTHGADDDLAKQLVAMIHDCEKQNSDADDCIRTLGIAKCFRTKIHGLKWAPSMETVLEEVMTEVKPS
Text: as §3, §4

rGmolPBP3 = rGmolPBP3 (Grapholita molesta, UniProt A0A059VBP3); experiment: as above
Sequence of rGmolPBP3 (A0A059VBP3 entry or part of it): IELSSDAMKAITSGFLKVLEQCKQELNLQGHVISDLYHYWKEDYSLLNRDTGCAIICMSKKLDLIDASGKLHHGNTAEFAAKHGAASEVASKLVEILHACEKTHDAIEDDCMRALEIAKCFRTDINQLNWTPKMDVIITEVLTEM
Text: as §3, §4

rGmolGOBP2 = rGmolGOBP2 (Grapholita molesta, UniProt H9XTU6); experiment: as above
Sequence of rGmolGOBP2 (H9XTU6 entry or part of it): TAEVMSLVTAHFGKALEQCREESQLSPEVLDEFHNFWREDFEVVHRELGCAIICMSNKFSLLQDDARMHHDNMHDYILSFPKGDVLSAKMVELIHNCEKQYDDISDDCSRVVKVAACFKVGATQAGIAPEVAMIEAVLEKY
Text: as §3, §4

rGmolPBP1 = rGmolPBP1 (Grapholita molesta, UniProt A0A2R4SBD6); experiment: as above
Sequence of rGmolPBP1 (A0A2R4SBD6 entry or part of it): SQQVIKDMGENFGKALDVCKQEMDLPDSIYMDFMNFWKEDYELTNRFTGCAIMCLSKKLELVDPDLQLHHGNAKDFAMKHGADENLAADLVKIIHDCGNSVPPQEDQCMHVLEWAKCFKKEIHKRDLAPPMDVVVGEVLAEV
Text: as §3, §4

[1] = Z8-12:Ac/E8-12:Ac/Z10-14:Ac 500/20/25 μg (100:4:5)
[2] = Z8-12:Ac/E8-12:Ac/Z10-14:Ac 500/20/50 μg (100:4:10)
[3] = Z8-12:Ac/E8-12:Ac/Z10-14:Ac 500/20/100 μg (100:4:20)
[4] = Z8-12:Ac/E8-12:Ac/Z10-14:Ac 500/20/150 μg (100:4:30)
[5] = Z8-12:Ac/E8-12:Ac/Z10-14:Ac 500/20/250 μg (100:4:50)
[6] = Z8-12:Ac/E8-12:Ac/Z10-14:Ac 500/20/350 μg (100:4:70)
[7] = Z8-12:Ac/E8-12:Ac/Z10-14:Ac 500/20/450 μg (100:4:90)
[8] = Z8-12:Ac/E8-12:Ac/Z10-14:Ac 500/20/550 μg (100:4:110)
[9] = more than 10% of Z10-14:Ac added to Z8-12:Ac and E8-12:Ac (100:4)

Structure (SMILES): CCC/C=C\CCCCCCCCCOC(C)=O [Z10-14:Ac, (Z)-10-tetradecenyl acetate]
- Total OFM Males/Trap (OFM males; [1]): 125.55 ± 14.47 ab Males/Trap
- Inhibition Rate of OFM Males (OFM males; [1]): 35.04%
- Total OFM Males/Trap (OFM males; [2]): 97.92 ± 10.31 bc Males/Trap
- Inhibition Rate of OFM Males (OFM males; [2]): 49.34%
- Total OFM Males/Trap (OFM males; [3]): 83.33 ± 9.82 cd Males/Trap
- Inhibition Rate of OFM Males (OFM males; [3]): 56.89%
- Total OFM Males/Trap (OFM males; [4]): 33.56 ± 2.24 e Males/Trap
- Inhibition Rate of OFM Males (OFM males; [4]): 82.64%
- Total OFM Males/Trap (OFM males; [5]): 31.28 ± 3.22 e Males/Trap
- Inhibition Rate of OFM Males (OFM males; [5]): 83.82%
- Total OFM Males/Trap (OFM males; [6]): 37.49 ± 3.45 e Males/Trap
- Total OFM Males/Trap (OFM males; [7]): 23.64 ± 1.23 e Males/Trap
- Inhibition Rate of OFM Males (OFM males; [7]): 87.77%
- Total OFM Males/Trap (OFM males; [8]): 29.69 ± 2.18 e Males/Trap
- Inhibition Rate of OFM Males (OFM males; [8]): 84.64%
- maximum reduction of the capture of OFM males (OFM males; [9]): up to 87.77%
- EAG values of OFM males compared with PFM males (OFM male antennae; 20 μg): absence of significant difference
- EAG response of OFM males (OFM male antennae): moderate EAG response
- EAG values of OFM males compared with PFM males (OFM male antennae; 200 and 2000 μg): significantly greater than that of PFM males
- Total PFM Males/Trap (PFM males; [1]): 121.32 ± 12.10 ab Males/Trap
- Total PFM Males/Trap (PFM males; [2]): 101.39 ± 7.72 b Males/Trap
- Total PFM Males/Trap (PFM males; [3]): 102.73 ± 10.21 b Males/Trap
- Total PFM Males/Trap (PFM males; [4]): 66.08 ± 8.27 c Males/Trap
- Total PFM Males/Trap (PFM males; [5]): 62.46 ± 5.63 c Males/Trap
- Total PFM Males/Trap (PFM males; [6]): 51.35 ± 7.21cd Males/Trap
- Total PFM Males/Trap (PFM males; [7]): 41.24 ± 5.10 d Males/Trap
- Total PFM Males/Trap (PFM males; [8]): 42.33 ± 3.95 d Males/Trap
- maximum reduction of the capture of PFM males (PFM males; [9]): ≤ 71.07%
- EAG response of PFM males (PFM male antennae): moderate EAG response

Structure (SMILES): CCC/C=C\CCCCCCCOC(C)=O [Z8-12:Ac, (Z)-8-dodecenyl acetate]
- EAG response of OFM males (OFM male antennae): higher sensitivity
- EAG response of PFM males (PFM male antennae): higher sensitivity

Structure (SMILES): CCC/C=C/CCCCCCCOC(C)=O [E8-12:Ac, (E)-8-dodecenyl acetate]
- EAG response of OFM males (OFM male antennae): higher sensitivity
- EAG response of PFM males (PFM male antennae): higher sensitivity

Structure (SMILES): c1ccc(Nc2cccc3ccccc23)cc1 [1−NPN, N-Phenyl-1-naphthylamine, reference compound]
- Kd (rGmolGOBP1): 5.76 ± 0.01 µM
- Kd (rGmolPBP2 (wild-type)): 1090 ± 20 nM
- Kd (rGmolPBP3): 11.24 ± 0.08 µM
- Kd (rGmolGOBP2): 4.32 ± 0.02 µM
- Kd (rGmolPBP1): 1290 ± 20 nM
